Reference: ChEMBL document CHEMBL5247683 (ACS Med Chem Lett, 2023)

Key:
[1] = molecular target: Glycogen synthase kinase-3 beta (Homo sapiens, UniProt P49841); test: Inhibition of GSK3B (unknown origin)
[2] = molecular target: JAK1/TYK2 (Homo sapiens, UniProt P23458+P29597); test: Inhibition of JAK1/TYK2 in human M07E cells assessed as reduction of IFN alpha stimulated STAT phosphorylation preincubated for 30 mins followed by IFN alpha stimulation for 15 mins by flow cytometry method; assay type: cell-based
Sequence of JAK1/TYK2 (P23458 whole entry): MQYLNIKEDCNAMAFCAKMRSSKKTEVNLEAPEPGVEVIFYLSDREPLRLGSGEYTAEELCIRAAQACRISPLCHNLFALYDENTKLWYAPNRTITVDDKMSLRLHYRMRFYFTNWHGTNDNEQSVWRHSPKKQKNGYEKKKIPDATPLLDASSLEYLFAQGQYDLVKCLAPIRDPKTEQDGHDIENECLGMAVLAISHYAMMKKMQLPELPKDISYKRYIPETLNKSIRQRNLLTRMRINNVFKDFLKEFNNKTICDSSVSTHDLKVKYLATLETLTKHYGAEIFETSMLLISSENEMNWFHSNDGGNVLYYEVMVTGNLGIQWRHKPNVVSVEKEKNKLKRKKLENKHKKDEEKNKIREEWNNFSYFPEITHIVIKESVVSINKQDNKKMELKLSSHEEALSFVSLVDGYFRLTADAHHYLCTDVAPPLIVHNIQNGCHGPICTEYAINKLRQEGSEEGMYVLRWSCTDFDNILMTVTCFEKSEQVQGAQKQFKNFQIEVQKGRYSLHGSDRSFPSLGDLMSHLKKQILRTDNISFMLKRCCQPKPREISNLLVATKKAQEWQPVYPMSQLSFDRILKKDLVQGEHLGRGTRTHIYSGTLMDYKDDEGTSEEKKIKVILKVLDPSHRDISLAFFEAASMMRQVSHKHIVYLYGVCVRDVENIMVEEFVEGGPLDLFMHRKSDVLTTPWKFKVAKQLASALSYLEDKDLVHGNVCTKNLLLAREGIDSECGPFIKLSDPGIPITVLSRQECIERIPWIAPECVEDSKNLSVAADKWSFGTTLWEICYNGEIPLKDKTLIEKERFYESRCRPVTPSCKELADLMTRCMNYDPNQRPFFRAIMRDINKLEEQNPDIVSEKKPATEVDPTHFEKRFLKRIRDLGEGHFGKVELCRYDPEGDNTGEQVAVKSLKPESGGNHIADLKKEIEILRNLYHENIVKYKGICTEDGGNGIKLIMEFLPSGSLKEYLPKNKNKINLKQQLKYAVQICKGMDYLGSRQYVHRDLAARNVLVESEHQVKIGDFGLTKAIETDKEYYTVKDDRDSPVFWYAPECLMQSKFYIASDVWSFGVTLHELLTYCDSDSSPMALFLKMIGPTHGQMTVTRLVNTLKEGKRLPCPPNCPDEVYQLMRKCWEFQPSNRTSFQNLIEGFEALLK
Sequence of JAK1/TYK2 (P29597 whole entry): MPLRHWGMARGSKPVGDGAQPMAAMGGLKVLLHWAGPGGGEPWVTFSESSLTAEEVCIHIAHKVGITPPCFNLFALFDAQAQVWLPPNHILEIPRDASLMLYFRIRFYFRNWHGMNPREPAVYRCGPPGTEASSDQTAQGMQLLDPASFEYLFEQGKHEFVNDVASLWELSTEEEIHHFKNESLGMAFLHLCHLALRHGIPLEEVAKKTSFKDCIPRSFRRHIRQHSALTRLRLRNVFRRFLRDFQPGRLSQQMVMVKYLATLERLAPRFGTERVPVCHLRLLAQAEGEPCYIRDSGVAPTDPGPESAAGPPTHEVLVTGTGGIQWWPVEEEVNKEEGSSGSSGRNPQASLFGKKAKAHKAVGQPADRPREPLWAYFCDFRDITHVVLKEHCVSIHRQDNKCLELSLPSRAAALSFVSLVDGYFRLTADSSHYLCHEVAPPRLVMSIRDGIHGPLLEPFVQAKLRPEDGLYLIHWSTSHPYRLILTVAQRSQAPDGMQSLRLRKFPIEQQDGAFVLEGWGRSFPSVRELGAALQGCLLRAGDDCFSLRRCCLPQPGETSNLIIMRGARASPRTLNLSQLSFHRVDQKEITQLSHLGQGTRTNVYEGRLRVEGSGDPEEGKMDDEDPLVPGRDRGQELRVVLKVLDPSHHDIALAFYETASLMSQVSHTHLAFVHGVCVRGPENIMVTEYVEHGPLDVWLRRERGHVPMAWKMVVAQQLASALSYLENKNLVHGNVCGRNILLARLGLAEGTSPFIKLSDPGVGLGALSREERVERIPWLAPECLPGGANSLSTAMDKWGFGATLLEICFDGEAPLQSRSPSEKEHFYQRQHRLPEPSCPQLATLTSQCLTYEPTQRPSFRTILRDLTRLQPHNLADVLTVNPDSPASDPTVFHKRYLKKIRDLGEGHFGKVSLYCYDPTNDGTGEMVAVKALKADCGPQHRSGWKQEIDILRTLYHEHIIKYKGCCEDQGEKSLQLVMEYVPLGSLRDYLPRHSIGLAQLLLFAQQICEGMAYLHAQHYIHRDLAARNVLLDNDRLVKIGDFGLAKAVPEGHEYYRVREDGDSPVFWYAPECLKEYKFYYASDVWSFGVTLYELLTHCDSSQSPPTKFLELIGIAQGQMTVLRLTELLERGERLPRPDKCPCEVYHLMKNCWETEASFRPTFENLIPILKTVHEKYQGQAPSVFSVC

[3] = molecular target: T1, JAK3/JAK1 (Homo sapiens, UniProt P23458+P52333); assay type: tissue-based, Blood
T1 sequence (P23458 whole entry, one chain of several, the tested form may be a part): as the sequence (P23458 whole entry) above
Description: Inhibition of JAK1/JAK3 in human blood assessed as reduction of IL-2 stimulated STAT phosphorylation preincubated for 30 mins followed by IL-2 stimulation for 15 mins by flow cytometry method

[4] = molecular target: Tyrosine-protein kinase JAK1 (Homo sapiens, UniProt P23458); test: Inhibition of GST-fused JAK1 (866 to 1154 residues) (unknown origin) using FITC-AhxKKSRGDYMTMQIG-NH2 peptide as substrate incubated for 60 mins in presence of ATP by Janus kinase assay
Sequence of Tyrosine-protein kinase JAK1 (P23458 whole entry, the tested form may be a part): as the sequence (P23458 whole entry) above

[5] = molecular target: Tyrosine-protein kinase JAK2 (Homo sapiens, UniProt O60674); test: Inhibition of GST-fused JAK2 (808 to 1132 residues) (unknown origin) using Carboxyfluorescein-Ahx-GGEEEEYFELVKKKK peptide as substrate incubated for 60 mins in presence of ATP by Janus kinase assay
Sequence of Tyrosine-protein kinase JAK2 (O60674 whole entry, the tested form may be a part): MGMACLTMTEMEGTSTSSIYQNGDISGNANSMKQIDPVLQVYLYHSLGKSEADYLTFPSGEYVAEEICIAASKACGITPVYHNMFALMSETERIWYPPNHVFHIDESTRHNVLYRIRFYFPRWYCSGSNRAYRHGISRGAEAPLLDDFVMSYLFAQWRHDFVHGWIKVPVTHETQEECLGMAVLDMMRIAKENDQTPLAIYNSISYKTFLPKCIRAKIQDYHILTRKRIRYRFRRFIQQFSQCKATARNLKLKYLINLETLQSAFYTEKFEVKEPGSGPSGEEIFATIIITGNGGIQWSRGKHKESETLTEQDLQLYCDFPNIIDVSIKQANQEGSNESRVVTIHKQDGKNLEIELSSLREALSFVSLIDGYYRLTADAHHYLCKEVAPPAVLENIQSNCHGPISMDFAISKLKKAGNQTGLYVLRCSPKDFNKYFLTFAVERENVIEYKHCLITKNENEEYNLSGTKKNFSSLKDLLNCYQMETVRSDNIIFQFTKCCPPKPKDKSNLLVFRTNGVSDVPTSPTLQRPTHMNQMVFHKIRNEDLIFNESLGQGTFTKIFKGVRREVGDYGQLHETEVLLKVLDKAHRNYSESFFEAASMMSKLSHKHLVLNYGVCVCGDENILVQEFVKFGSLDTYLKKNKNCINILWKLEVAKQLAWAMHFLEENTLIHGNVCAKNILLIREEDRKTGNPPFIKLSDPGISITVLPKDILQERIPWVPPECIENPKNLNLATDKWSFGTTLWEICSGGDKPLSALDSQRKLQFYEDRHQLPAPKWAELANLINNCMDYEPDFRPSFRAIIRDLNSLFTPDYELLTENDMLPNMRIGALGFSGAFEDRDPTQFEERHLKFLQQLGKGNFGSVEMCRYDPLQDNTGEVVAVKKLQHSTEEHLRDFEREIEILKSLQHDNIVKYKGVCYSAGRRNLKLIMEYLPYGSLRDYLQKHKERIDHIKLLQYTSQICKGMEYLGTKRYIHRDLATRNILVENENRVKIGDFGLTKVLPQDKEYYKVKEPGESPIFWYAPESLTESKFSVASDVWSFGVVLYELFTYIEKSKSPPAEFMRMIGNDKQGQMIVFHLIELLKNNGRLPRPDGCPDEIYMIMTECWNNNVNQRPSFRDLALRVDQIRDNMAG

[6] = molecular target: T2, Tyrosine-protein kinase JAK3 (Homo sapiens, UniProt P52333); test: Inhibition of GST-fused JAK3 (811 to 1124 residues) (unknown origin) using Carboxyfluorescein-Ahx-GGEEEEYFELVKKKK peptide as substrate incubated for 60 mins in presence of ATP by Janus kinase assay
T2 sequence (P52333 whole entry): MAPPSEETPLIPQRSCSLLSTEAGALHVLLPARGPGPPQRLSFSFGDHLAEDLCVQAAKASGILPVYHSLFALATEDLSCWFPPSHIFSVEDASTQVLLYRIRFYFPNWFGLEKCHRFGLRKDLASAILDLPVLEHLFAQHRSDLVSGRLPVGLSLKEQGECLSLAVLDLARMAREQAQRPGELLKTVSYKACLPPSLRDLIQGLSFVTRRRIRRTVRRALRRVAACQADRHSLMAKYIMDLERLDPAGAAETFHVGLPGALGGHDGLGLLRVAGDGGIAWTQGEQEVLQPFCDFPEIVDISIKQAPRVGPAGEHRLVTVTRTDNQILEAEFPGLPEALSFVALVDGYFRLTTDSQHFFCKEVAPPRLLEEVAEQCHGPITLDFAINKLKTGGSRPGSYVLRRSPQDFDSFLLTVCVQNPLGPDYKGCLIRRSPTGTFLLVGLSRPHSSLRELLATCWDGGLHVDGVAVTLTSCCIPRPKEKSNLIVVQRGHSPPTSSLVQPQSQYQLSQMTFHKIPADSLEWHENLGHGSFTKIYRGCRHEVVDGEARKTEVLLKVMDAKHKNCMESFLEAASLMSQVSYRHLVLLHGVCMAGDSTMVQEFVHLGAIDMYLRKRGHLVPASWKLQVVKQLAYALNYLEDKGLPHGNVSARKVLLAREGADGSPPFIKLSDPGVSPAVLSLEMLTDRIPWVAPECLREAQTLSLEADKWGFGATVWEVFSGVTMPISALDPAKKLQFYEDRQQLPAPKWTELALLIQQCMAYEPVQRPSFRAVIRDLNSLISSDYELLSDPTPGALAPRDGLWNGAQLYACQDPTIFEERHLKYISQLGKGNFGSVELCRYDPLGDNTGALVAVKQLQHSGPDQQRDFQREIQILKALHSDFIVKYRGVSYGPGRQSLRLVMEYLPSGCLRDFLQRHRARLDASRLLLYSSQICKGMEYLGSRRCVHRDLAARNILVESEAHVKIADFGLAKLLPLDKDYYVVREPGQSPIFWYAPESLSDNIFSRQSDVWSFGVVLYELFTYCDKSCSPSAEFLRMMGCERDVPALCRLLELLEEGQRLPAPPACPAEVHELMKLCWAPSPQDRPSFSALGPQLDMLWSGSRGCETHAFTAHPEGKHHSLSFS

[7] = molecular target: Non-receptor tyrosine-protein kinase TYK2 (Homo sapiens, UniProt P29597); test: Inhibition of GST-fused Tyk2 (888 to 1187 residues) (unknown origin) using FITC-AhxKKSRGDYMTMQIG-NH2 peptide as substrate incubated for 60 mins in presence of ATP by Janus kinase assay
Sequence of Non-receptor tyrosine-protein kinase TYK2 (P29597 whole entry, the tested form may be a part): as the sequence (P29597 whole entry) above

[8] = molecular target: T1, JAK3/JAK1; test: Inhibition of JAK1/JAK3 in human M07E cells assessed as reduction of IL-15 stimulated STAT phosphorylation preincubated for 30 mins followed by IL-15 stimulation for 15 mins by flow cytometry method; assay type: cell-based
[9] = molecular target: Vascular endothelial growth factor receptor 2 (Homo sapiens, UniProt P35968); test: Inhibition of KDR (unknown origin)
Sequence of Vascular endothelial growth factor receptor 2 (P35968 whole entry): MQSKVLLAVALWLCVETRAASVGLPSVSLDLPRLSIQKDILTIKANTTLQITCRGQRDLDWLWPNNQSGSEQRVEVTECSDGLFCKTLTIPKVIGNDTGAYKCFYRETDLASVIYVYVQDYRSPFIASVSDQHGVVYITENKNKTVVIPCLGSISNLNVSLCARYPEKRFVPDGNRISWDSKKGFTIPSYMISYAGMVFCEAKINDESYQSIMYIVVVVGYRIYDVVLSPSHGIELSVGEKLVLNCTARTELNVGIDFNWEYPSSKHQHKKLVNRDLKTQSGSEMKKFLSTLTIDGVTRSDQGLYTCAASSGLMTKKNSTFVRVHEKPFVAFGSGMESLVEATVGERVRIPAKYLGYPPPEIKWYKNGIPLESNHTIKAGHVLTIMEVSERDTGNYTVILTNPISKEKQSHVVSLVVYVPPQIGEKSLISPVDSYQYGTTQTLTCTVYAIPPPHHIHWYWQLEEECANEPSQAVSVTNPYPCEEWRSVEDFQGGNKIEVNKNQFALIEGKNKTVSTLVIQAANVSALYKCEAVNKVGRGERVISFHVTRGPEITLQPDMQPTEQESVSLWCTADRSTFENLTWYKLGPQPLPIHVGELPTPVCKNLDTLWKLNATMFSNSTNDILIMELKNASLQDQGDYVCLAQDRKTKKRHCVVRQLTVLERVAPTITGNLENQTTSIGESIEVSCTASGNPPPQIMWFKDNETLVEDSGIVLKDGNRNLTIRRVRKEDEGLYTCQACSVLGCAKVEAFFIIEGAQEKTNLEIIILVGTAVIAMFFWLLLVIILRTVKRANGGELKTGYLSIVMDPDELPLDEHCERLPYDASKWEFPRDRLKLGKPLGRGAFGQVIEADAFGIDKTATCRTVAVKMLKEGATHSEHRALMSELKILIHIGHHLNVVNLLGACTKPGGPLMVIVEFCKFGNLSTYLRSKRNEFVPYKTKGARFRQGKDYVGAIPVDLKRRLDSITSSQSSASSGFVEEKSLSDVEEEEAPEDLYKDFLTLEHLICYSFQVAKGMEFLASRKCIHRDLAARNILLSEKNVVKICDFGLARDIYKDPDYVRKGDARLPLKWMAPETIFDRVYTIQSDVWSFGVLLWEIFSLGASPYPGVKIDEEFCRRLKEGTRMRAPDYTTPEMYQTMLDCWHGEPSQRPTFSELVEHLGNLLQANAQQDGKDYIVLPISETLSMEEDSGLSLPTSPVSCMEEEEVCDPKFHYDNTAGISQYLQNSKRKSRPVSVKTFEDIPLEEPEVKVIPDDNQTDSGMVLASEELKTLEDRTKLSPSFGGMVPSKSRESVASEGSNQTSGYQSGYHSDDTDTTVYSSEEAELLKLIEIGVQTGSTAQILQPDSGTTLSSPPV

[10] = molecular target: T3, Aurora kinase A (Homo sapiens, UniProt O14965); test: Inhibition of AuroraA (unknown origin)
T3 sequence (O14965 whole entry): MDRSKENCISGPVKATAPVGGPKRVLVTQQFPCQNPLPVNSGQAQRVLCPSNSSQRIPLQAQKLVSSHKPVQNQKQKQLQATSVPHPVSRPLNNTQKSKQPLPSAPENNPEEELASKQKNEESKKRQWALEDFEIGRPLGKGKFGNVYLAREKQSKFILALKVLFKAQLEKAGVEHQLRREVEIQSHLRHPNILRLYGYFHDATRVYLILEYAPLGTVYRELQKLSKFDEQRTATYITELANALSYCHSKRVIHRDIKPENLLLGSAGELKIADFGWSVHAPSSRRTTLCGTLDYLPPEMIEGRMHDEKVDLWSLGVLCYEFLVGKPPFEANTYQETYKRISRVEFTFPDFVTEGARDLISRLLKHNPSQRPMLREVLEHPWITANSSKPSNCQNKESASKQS

[11] = molecular target: T4, Interleukin-1 receptor-associated kinase 4 (Homo sapiens, UniProt Q9NWZ3); test: Inhibition of IRAK4 (unknown origin)
T4 sequence (Q9NWZ3 whole entry): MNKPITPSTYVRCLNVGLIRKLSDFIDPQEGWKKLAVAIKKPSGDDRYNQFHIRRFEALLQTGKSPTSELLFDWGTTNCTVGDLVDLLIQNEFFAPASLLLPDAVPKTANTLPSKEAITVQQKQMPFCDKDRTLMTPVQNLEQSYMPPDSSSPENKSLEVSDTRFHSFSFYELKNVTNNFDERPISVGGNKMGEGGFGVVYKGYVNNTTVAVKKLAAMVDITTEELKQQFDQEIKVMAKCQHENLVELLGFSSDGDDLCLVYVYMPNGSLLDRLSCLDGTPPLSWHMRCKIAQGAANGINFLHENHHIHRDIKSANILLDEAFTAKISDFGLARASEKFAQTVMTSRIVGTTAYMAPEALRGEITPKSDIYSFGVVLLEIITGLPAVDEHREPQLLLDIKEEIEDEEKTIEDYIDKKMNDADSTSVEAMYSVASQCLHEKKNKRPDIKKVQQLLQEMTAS

[12] = molecular target: T5, Receptor-type tyrosine-protein kinase FLT3 (Homo sapiens, UniProt P36888); test: Inhibition of FLT3 (unknown origin)
T5 sequence (P36888 whole entry): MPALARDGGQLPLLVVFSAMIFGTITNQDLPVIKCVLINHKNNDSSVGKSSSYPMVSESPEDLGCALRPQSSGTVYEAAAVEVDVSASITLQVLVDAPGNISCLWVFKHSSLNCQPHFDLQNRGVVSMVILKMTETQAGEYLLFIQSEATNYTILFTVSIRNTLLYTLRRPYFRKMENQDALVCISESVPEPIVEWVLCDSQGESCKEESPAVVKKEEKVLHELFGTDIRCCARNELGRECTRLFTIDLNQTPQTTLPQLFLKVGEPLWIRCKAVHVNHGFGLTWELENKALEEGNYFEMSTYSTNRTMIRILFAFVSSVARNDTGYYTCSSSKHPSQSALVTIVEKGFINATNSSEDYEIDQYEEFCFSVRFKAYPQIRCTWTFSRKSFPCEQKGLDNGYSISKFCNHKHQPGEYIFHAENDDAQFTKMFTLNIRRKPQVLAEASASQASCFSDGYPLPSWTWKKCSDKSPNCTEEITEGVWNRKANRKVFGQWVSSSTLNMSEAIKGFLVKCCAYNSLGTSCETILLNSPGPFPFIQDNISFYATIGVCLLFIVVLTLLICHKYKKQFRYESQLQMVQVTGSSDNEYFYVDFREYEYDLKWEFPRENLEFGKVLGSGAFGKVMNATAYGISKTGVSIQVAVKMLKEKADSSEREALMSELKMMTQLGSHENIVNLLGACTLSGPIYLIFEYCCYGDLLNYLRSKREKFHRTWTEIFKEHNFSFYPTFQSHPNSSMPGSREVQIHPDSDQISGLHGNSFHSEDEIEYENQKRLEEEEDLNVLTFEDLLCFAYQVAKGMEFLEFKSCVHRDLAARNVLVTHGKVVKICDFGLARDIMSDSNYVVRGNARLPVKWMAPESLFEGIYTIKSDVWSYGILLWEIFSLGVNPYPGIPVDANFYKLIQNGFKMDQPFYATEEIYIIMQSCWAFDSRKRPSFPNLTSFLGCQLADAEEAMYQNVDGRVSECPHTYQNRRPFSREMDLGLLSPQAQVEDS

[13] = molecular target: T6, Serine/threonine-protein kinase 4 (Homo sapiens, UniProt Q13043); test: Inhibition of STK4 (unknown origin)
T6 sequence (Q13043 whole entry): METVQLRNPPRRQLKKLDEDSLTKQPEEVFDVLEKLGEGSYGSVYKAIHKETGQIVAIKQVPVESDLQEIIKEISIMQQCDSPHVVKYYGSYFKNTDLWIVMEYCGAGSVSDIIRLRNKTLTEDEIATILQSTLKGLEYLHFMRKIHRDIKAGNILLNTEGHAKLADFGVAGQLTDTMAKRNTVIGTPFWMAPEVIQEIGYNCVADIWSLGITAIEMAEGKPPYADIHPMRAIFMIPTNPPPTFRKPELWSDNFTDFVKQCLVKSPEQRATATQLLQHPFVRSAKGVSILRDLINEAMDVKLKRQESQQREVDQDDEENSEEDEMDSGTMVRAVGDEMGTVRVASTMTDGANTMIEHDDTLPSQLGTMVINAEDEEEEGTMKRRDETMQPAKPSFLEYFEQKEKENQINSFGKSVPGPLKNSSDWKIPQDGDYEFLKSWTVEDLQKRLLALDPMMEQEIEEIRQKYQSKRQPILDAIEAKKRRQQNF

[14] = molecular target: Tyrosine-protein kinase Lck (Homo sapiens, UniProt P06239); test: Inhibition of LCK (unknown origin)
[15] = Inhibition of p70S6K (unknown origin); set-up: species or system Homo sapiens
[16] = in vitro; settings: human, liver microsomes
Description: Intrinsic clearance in human liver microsomes

[17] = Dissociation constant, pKa of compound; assay type: physicochemical

Row | SMILES | IC50 [1] [nM] | IC50 [2] [nM] | IC50 [3] [nM] | IC50 [4] [nM] | IC50 [5] [nM] | IC50 [6] [nM] | IC50 [7] [nM] | IC50 [8] [nM] | IC50 [9] [nM] | IC50 [10] [nM] | IC50 [11] [nM] | IC50 [12] [nM] | IC50 [13] [nM] | IC50 [14] [nM] | IC50 [15] [nM] | microsomal CLint [16] [µL/min/mg] | pKa [17]
1 | NC(=O)c1cnc(Nc2cccc(O)n2)cc1Nc1ccccc1Cl | > 2500 | > 10000 | > 30000 | 3270 | 3150 | 4560 | 2090 | > 10000 | > 2500 | > 2500 | > 2500 | > 2500 | > 2500 | > 2500 | > 2500 |  | 
2 | COc1cccc(Nc2cc(Nc3ccccc3Cl)c(C(N)=O)cn2)n1 |  | 271 | 2170 | 103 | 76 | 89 | 77 | 169 |  |  |  |  |  |  |  |  | 
3 | CCOC(=O)Oc1cccc(Nc2cc(Nc3ccccc3Cl)c(C(N)=O)cn2)n1 |  | 71 | > 30000 | 131 | 52 | 76 | 59 | 116 |  |  |  |  |  |  |  |  | 
4 | C[C@H]1CN(C(=O)CC#N)[C@]12CCN(c1ncnc3[nH]ccc13)C2 [DELGOCITINIB] |  |  |  |  |  |  |  |  |  |  |  |  |  |  |  | < 25 | 
5 | NC(=O)c1cnc(Nc2ccc(O)cn2)cc1Nc1ccccc1Cl |  | 290 | 525 | 14 | 20 | 20 |  | 218 |  |  |  |  |  |  |  |  | 
6 | Cc1cccc(Nc2cc(Nc3ccccc3Cl)c(C(N)=O)cn2)n1 |  |  |  |  |  |  | 60 |  |  |  |  |  |  |  |  |  | 6.2
